Experimental findings from PMC5478271, “Chemical structure-guided design of dynapyrazoles, cell-permeable dynein inhibitors with a unique mode of action” (eLife, 2017) are described below.

Several values for one entry are separate records, joined by “and”; a condition that tells them apart may be missing. Equal values may be shown once.

In this test the target is T1, AAA3 Walker A-mutant His-dynein 1 (K2601A) (Homo sapiens, UniProt Q14204, K2601A).
T1 construct: (wild-type, K1912A, K2601A, AA 1320–4646, uniprot: Q14204); made in house; host or cells: Sf9 insect cells (baculovirus)
T1 sequence (Q14204 1320-4646 K2601A): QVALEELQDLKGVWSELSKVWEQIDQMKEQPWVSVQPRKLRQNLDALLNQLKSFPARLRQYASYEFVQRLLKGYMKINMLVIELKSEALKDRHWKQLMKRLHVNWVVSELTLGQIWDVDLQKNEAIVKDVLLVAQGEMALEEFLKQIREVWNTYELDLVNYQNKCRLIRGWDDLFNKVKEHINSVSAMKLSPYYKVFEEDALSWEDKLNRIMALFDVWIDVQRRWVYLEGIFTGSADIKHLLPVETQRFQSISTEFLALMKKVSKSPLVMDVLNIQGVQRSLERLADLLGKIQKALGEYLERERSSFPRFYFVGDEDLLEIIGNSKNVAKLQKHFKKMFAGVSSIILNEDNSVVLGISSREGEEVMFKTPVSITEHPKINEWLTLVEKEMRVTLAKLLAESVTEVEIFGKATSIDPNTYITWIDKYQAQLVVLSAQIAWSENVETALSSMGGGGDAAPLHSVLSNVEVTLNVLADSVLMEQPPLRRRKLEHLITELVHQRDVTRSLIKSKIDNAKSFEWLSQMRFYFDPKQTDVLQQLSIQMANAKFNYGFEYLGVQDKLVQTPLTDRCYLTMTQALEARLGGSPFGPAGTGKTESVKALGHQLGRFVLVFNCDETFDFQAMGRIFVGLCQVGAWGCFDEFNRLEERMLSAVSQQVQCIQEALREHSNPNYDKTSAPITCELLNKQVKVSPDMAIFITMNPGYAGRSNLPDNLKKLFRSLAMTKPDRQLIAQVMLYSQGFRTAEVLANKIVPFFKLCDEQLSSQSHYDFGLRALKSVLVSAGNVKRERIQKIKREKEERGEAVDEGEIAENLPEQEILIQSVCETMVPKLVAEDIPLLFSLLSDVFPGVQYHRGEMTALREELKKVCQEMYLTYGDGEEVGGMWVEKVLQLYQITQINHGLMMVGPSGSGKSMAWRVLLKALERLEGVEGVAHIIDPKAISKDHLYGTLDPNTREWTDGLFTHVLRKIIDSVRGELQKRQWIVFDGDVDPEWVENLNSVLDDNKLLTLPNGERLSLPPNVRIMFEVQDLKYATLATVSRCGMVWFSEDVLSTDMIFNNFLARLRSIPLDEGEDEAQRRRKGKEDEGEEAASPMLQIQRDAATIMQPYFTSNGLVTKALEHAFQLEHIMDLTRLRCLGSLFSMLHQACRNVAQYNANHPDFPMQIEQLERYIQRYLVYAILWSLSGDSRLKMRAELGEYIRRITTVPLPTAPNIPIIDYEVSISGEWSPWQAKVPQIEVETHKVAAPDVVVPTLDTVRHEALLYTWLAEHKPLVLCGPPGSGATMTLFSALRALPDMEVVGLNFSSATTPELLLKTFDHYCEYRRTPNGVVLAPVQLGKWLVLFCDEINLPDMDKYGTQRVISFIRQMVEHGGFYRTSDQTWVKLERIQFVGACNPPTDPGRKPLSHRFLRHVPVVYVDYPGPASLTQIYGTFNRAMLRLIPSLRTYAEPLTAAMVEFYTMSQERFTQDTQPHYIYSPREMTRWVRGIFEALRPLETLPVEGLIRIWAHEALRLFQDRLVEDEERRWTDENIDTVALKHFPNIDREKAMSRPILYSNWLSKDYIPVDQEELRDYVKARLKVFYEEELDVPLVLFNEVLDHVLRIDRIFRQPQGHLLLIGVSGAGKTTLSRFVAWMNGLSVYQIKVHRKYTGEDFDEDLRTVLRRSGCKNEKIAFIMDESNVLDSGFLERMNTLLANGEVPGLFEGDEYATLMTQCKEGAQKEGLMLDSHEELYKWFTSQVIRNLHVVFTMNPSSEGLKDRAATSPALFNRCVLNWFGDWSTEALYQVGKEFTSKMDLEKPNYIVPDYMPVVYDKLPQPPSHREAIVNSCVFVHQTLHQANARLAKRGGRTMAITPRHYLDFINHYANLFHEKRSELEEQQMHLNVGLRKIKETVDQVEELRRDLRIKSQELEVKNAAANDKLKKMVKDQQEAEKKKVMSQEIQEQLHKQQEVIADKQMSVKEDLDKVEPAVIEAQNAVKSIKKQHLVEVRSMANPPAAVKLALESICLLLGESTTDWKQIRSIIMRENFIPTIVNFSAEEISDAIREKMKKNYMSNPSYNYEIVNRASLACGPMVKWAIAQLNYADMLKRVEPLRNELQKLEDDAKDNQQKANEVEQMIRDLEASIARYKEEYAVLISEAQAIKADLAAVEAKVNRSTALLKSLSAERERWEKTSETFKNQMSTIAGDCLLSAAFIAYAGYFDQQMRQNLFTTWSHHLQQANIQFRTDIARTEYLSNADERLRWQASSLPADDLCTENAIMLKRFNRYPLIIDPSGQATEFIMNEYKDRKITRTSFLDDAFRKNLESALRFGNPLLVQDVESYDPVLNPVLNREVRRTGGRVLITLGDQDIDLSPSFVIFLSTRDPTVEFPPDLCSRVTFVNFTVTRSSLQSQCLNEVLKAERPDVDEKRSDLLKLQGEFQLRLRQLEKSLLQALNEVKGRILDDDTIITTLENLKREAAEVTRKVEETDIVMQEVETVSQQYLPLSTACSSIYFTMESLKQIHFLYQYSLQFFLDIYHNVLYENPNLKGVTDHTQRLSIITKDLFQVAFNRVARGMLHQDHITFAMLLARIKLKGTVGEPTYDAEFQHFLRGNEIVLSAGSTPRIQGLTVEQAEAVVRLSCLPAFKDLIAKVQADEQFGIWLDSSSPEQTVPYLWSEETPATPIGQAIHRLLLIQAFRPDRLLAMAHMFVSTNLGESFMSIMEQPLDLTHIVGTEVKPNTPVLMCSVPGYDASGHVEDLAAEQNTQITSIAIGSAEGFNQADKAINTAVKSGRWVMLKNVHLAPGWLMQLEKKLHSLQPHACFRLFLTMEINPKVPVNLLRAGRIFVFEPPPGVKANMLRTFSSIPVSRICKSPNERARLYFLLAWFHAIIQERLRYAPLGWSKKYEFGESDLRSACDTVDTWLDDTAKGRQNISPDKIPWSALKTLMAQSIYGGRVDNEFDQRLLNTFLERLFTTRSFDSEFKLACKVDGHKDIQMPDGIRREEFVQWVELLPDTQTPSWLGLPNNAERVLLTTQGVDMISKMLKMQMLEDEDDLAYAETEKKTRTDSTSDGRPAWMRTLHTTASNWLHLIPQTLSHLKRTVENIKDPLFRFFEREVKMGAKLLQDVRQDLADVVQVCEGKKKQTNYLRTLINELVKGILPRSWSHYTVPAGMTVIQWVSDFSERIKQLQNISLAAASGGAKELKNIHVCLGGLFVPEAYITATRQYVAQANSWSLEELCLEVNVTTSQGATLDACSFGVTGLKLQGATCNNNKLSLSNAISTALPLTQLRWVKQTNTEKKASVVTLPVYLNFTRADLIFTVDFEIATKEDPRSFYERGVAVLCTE
The test can be described thus: ATPase activity of AAA3 Walker A-mutant (K2601A) His-dynein 1. The format is biochemical. The conditions noted are these: for IC50: 2% DMSO, read-out: IC50, inhibition of the basal ATPase activity of the AAA3 Walker A-mutant His-dynein 1. On the procedure:
ATPase assays using recombinant Dynein 1 (wild-type and mutants) were performed in a buffer containing 25 mM PIPES pH7.0, 30 mM KCl, 1 mM EGTA, 5 mM MgCl2, 0.01% triton X-100, 1 mM DTT, and 20–30 µM taxol (if microtubules were present). For typical conditions, enzyme was incubated with varying concentrations of inhibitor in buffer containing 2% DMSO for 10 min in a volume of 10 μL. When microtubules were present, they were polymerized by stepwise addition of taxol and high concentrations of DMSO (30% final during polymerization reactions), and re-suspended following centrifugation in ATPase buffer to a concentration up to threefold above the final concentration used in the reaction (bovine brain tubulin, no fluoresecent label). For microtubule-stimulated reactions in dose-response format, reactions were assembled by 1:1:1 mixture of 3x enzyme stock, 3x compound stock (in buffer with 6% DMSO), and 3x microtubule stock to each well. For microtubule-stimulated ATPase assays at tubulin concentrations > 2.5 µM, enzyme stock was supplemented with compound stock in pure DMSO (resulting in an intermediate DMSO concentration of 6%), and then the microtubule stock was added. Final enzyme concentrations were 30–100 nM for GFP-dynein 1, wild-type 6x-His-dynein 1, and K2601A 6x-His-dynein 1 and up to 500 nM for K1912A 6x-His-dynein 1. The final DMSO concentration was 2% in all ATPase assays performed.
Assembled reaction mixtures (including enzyme, compound, and microtubules, if present) were incubated for 10 min before addition of ATP. Each ATPase reaction was initiated by addition of 2 μL of a 6x ATP stock containing trace γ-^32P ATP (3 µCi/mmol, 3 µCi/mL, Perkin Elmer) and allowed to proceed for a time predetermined to lie within the linear range of the assay (20–30 min). For typical conditions, ATP was used at a final concentration of 1 mM. Reactions were quenched by the addition of 12 µL 100 mM EDTA, and 2 μL of each quenched reaction was spotted onto PEI-cellulose TLC plates (Millipore). Plates were developed in a glass chamber with a freshly prepared solution of 150 mM formic acid and 150 mM LiCl, dried, exposed to a storage phosphor tray (GE Healthsciences), and scanned on a Typhoon imaging system (GE Healthsciences). The fraction of γ-phosphate hydrolyzed in each condition was quantified using FIJI.
Curve fitting: Where dose-response experiments are fit and IC50values given, these are obtained as follows: Individual experiments are treated as separate. The data are fit to a sigmoidal dose-response curve of the form (Y=Bottom + (Top-Bottom)/(1 + 10^((LogIC50-X)*HillSlope)). All variables were allowed to float freely with the exception of the variable denoted ‘bottom’, which was constrained to be >0. The separate IC50 values obtained from fits to each individual experiment's dataset were averaged together and presented as a mean with range (Figure 3G and H) or standard deviation (Figures 3I, 5D, 6E and K).

As usually defined, the inhibition is the share of the control response that was lost under treatment. For orientation: IC50 means the concentration that gives 50% inhibition. On to `N#Cc1c(C2(c3ccc(Cl)cc3)CC2)nn2c1[nH]c(=O)c1cc(I)ccc12` [Compound 8, 2-[1-(4-chlorophenyl)cyclopropyl]-7-iodo-5-oxo-4H-pyrazolo[1,5-a]quinazoline-3-carbonitrile], for which the “Reduction of AAA3 mutant dynein's ATPase activity across the range of microtubule concentrations tested” value (30 µM compound, 1 mM MgATP) is 70–80%. Besides, the inhibition at 30 µM (30 µM compound, no microtubules, read-out: Inhibition of basal activity of the AAA3 mutant) was roughly 70%. Also, the IC50 (1 mM MgATP) worked out at 5.5 ± 1.6 µM. The “Residual ATPase activity of AAA3 mutant at the highest concentrations tested” value (basal activity, dose-response) was ~ 0.2 s^−1.
Regarding `N#C/C(C(=O)c1ccc(Cl)cc1Cl)=C1\NC(=O)c2ccc(Cl)cc2N1` [ciliobrevin D, reference compound], where the note is “1 mM MgATP”, the IC50 is 38.4 µM and 38 µM.
